The text below walks through data of US20070141120A1, “Peptide having an ace inhibiting effect” (priority 2003, published 2007).

Series [1] deals with ACE. Put plainly: ACE-inhibition assay 2: modified Matsui assay. It counts as biochemical. The note with it: substrate Hip-His-Leu, pH 8.3, 37° C., 30 min. Here is the method:
This ACE inhibition activity was assayed according to the method of Matsui et al. (Matsui, T. et al. (1992) Biosci. Biotech. Biochem. 56: 517-518) with the modifications described below.
For each sample 75 μl 3 mM hippuryl histidine leucine (Hip-His-Leu, Sigma chemicals Co.; the chemical was dissolved in 250 mM Borate containing 200 mM NaCl, pH 8.3); 20 μl 0.1 U/ml ACE (obtained at Sigma) or H2O, and 25 μl sample or H2O were mixed (see Table 1). The mixtures were incubated at 37° C. and stopped after 30 min by adding 125 μl 0.5 M HCl. Subsequently, 225 μl bicine/NaOH solution (1 M NaOH:0.25 M bicine (4:6)) was added, followed by 25 μl 0.1 M TNBS (2,4,6-Trinitrobenzenesulfonic acid, Fluka, Switzerland; in 0.1 M Na2HPO4). After incubation for 20 min. at 37° C., 4 ml 4 mM Na2SO3 in 0.2 M NaH2PO4 was added and the absorbance at 416 nm was measured with UV/Vis spectrophotometer (Shimadzu UV-1601 with a CPS controller, Netherlands).
The amount of ACE inhibition (ACEI) activity was calculated as a percentage of inhibition compared with the conversion rate of ACE in the absence of an inhibitor: ACEI (%)=(((C1−C2)−(S1−S2))/(C1−C2))*100 (1)
C1=Absorbance without ACE inhibitory component (=max. ACE activity) [AU].
C2=Absorbance without ACE inhibitory component and without ACE (background) [AU].
S1=Absorbance in the presence of ACE and the ACE inhibitory component [AU].
S2=Absorbance in the presence of the ACE inhibitory component, but without ACE [AU].

Series [2] deals with ACE (Homo sapiens, UniProt P12821). As to the kind of experiment: ACE-inhibition assay 1: enzyme based assay (EBA). It counts as biochemical. The conditions noted are these: substrate Abz-FRK-(Dnp)P-OH, pH 7.0, fluorescence. Here is the method:
ACE and a synthetic substrate (Abz-FRK-(Dnp)P-OH) were used in the ACE-inhibition assay performed in white optiplate-96 microplates (Packard Bioscience). The substrate was a kind gift of Adriana K. Carmona (Dept. of Biophysics, Escola Paulista de Medivina, Universidae Federal de Sao Paulo, Brazil). Stock solutions of Abz-FRK-(Dnp)P-OH were prepared in DMSO. […] The assay buffer composition was 100 mM tris/HCl buffer pH 7.0 containing 100 mM NaCl. Forty μl sample solution in assay buffer was added to each well. In case of the controls only buffer was added. The samples were measured in threefold in a fluorophotometer (Fluostar, BMG labtechnologies). […] The ACE activity was measured for 10 cycles (about 10 minutes) by measuring the fluorescence at λex=320 nm and ξem=420 nm. The raw data was converted to the slope/sec and the ACE inhibition activity was calculated using the equation below. ACE inhibition (%)=[1−(Smean−Bmean)/(Cmean−Bmean)]*100
Bmean=average result of background (substrate)

A short description of series [3]: Stability during exposure to human serum (LC-MS). The conditions noted are these: 37° C., up to 360 min, peptide mixtures.
Description: Samples of 1.5 ml were collected in eppendorf vials at each of the time points. […] Samples were subsequently incubated for 5 min at 100° C. and then centrifugated in an IEC Micromax RF centrifuge (Boom BV Meppel) at 10.000 rpm for 20 minutes. The supernatant was collected in eppendorf vials and stored at −20° C. for further analysis. Experiments were performed in triplicate.
(§1) All measurements were carried out on a Waters Quattro-II or Quattro-Ultima triple quadrupole mass spectrometer. The LC separation was carried out at 25° C. on a Inertsil 5 ODS3 column, 150×2.1 mm, packed with 3 μm particles (Chompack) using 0-50% acetonitrile/0.1% (v/v) TFA. For analyses, 5 μl sample was injected onto the column. The flow rate through the column was 0.2 ml/min. The total flow after post-column makeup was 0.05 ml/min and contained a 7/3 (v/v) mixture of propionic acid and propanol-2. Gradient effluent was analysed using MRM mass spectrometry in positive-ESI mode. Capillary voltage was 4 kV. Source and nebulizer temperature were 100° C. and 250° C., repsectively. Drying and nebuliser gas flow were 300 l/h and 17 l/h, respectively. Collision gas was argon at a pressure of 7.9 e-4 mbar.
The test system of series [4] is HUVEC cells. Put plainly: Stability during exposure to HUVEC cells (LC-MS). The note with it: up to 120 min, peptide mixtures.
Description: HUVEC cells were obtained from (Cambrex Bio Science, Verviers, Belgium) and used in experiments at passage 1-5. Cells were cultured in 75 cm^2 culture flasks (Corning Costar, Badhoevedorp, The Netherlands). The culture medium (Cambrex) consisted of EBM-2 supplemented with 2% (v/v) foetal bovine serum, 0.04% (v/v) Hydrocortisone, 0.4% (v/v) human Fibroblast Growth Factor Basic with heparin, 0.1% (v/v) Vascular Endothelial Growth Factor, 0.1% (v/v) human recombinant Insulin-like Growth Factor, 0.1% (v/v) Ascorbic acid, 0.1% (v/v) human recombinant Epidermal Growth Factor, 0.1% (v/v) Gentamicin, Amphotericin-B and 0.1% (v/v) Heparin. Cells were maintained at 37° C. in a humidified atmosphere of 5% CO2 in air. For stability experiments, cells were seeded in a 12 well plate (Corning Costar, Badhoevedorp, The Netherlands) at a density of 100.000 cells/well and cultured for 2 days.
Cells were cultured in 12-well plates. Peptide mixtures were added to culture medium without foetal bovine serum, but containing 20% (v/v) solid phase extracted foetal bovine serum. For HUVEC, 400 μl medium containing 0.1, 1 and 10 μg/ml peptide was added to a well of the culture plate. Three times 130 μl medium was collected at 0, 5, 10, 20, 30, 60, 90 and 120 min of incubation. […] Experiments were performed in triplicate and all samples were directly placed on dry-ice and stored at −20° C. […] Wells without cells served as controls.
as §1
Series [5] relates to Caco-2 cells. As to the kind of experiment: Stability during exposure to Caco-2 cells (LC-MS). The conditions noted are these: up to 360 min, peptide mixtures.
Description: Caco-2 cells were obtained from American Type Culture Collection (ATCC) and used in experiments at passage 30-40. Cells were cultured in 75 cm^2 culture flasks (Corning Costar, Badhoevedorp, The Netherlands). The culture medium consisted of DMEM (high glucose, with L-glutamine) supplemented with 20% (v/v) foetal bovine serum, 1% (v/v) penicillin/streptomycin solution and 1% (v/v) NEAA. Cells were maintained at 37° C. in a humidified atmosphere of 5% CO2 in air. For stability experiments, cells were seeded on 12 well cell culture plates (Costar, Badhoevedorp, The Netherlands) and cultured for at least 21 days.
Cells were cultured in 12-well plates. Peptide mixtures were added to culture medium without foetal bovine serum, but containing 20% (v/v) solid phase extracted foetal bovine serum. […] For Caco-2 cells, 330 μl medium containing 0.1, 1 and 10 μg/ml peptide was added to each well of the culture plate. Three times 110 μl medium was collected at 0, 5, 10, 20, 30, 60, 90, 180 and 360 min of incubation. Experiments were performed in triplicate and all samples were directly placed on dry-ice and stored at −20° C. […] Wells without cells served as controls.
as §1
For series [6] the following is noted: in sour milk, hypertensive humans, placebo-controlled; cited from earlier work.
Series [7] is described as follows: In vitro gastrointestinal digestion (GI conditions). The note with it: simulated gastric fluid pH 3.5 60 min, then intestinal fluid pH 6.8 120 min, 37° C.
Description: The stability of peptides in the human gastrointestinal tract was studied by subjecting fermented or hydrolysed milk proteins to typical conditions in the stomach and small intestine. Gastric conditions were mimicked by dissolving 80 ml fermented or hydrolysed milk protein in 820 ml water contianing 2.0 g NaCl, 2.9 g pepsin and 0.45 g Amano Lipase F-AP15 from Rhizopus oryzae. The fluid was adjusted to pH 3.5 with HCl, stirred with a peddle (50 rpm) and kept at 37° C. for 60 min. […] The simulated intestinal fluid was stirred with a peddle (50 rpm) and kept at 37° C. for 120 min. Samples were collected at different time points during the in vitro gastrointestinal digestion. After collection, samples were directly heated at 95° C. for 30 min and subsequently stored at −20° C.

pIC50: −log10 of the molar value. Peptide text beside a SMILES is read from it. Bounds are passed on as bounds.

The term pIC50 denotes the negative decadic logarithm of the IC50, by convention in mol/L. Read a low pIC50 as a large IC50.

ACE (Homo sapiens, UniProt P12821), sequence (P12821 30-1306, species assumed): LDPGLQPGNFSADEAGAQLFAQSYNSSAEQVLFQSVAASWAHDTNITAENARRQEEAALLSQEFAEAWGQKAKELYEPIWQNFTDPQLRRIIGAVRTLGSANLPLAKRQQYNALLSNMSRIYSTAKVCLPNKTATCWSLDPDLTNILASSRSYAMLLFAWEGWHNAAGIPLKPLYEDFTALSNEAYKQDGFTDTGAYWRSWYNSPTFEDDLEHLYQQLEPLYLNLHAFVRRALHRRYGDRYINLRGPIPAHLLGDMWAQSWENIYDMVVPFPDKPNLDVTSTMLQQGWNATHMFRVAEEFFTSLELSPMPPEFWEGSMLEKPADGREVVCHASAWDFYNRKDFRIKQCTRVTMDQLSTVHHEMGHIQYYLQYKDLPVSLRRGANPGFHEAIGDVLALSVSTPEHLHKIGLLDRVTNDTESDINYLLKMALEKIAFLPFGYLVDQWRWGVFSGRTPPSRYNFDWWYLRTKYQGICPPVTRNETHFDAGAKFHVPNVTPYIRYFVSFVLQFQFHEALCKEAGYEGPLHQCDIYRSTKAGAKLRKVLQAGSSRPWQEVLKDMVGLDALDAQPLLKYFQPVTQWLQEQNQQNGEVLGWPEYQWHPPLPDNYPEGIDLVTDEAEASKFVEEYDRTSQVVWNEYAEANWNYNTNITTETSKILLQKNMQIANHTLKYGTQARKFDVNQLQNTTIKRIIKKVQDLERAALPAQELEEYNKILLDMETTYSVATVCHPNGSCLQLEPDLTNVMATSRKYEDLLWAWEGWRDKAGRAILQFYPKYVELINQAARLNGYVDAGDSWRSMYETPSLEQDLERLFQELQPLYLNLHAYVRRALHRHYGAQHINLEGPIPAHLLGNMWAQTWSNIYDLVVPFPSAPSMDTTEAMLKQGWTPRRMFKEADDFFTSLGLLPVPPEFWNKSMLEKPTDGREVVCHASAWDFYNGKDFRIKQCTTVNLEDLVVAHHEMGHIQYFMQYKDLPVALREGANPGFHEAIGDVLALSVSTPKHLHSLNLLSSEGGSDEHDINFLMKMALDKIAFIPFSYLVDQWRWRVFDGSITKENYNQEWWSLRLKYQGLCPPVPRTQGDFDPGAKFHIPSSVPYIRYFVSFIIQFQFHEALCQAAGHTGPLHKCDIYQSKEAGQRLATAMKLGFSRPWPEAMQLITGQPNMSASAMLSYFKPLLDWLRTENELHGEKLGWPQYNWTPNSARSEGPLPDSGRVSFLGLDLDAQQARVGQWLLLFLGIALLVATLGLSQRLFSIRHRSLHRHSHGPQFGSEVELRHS

For the compound `N[C@@H](CS)C(=O)N1CCC[C@H]1C(=O)N1CCC[C@H]1C(=O)O` [CPP] (H-Cys-Pro-Pro-OH; N-terminus and C-terminus assumed), the pIC50 in series [1] was 5.40; in series [2], 5.30.

As to `N[C@@H](Cc1ccccc1)C(=O)N[C@@H](Cc1ccc(O)cc1)C(=O)O` [FY] (H-Phe-Tyr-OH; N-terminus and C-terminus assumed), the negative-log IC50 (pIC50) was 5.00 in series [1] and 4.70 in series [2]. Also, the “Stability, Serum” value in series [3] was “+”. In addition, in series [4], the “Stability, HUVEC” value was “−”. In addition, the “Stability, Caco-2” value in series [5] is recorded as “+/−”.

Turning to `CC[C@H](C)[C@H](N)C(=O)N1CCC[C@H]1C(=O)N1CCC[C@H]1C(=O)O` [IPP], in series [6], the Blood pressure effect result was “blood pressure lowering effect”. Besides, the “Stability, Serum” value in series [3] was “+/−”. The “Stability, HUVEC” value in series [4] is listed as “+”. Besides, the “Stability, Caco-2” value in series [5] is given as “−”. The “Stability, GI conditions” value in series [7] is recorded as “+”.

With `NCCCC[C@H](N)C(=O)N1CCC[C@H]1C(=O)N1CCC[C@H]1C(=O)O` [KPP] (H-Lys-Pro-Pro-OH; N-terminus and C-terminus assumed), the pIC50 in series [2] is less than 4.30.

`CC(C)C[C@H](NC(=O)[C@@H](NC(=O)[C@@H](N)CCCCN)C(C)C)C(=O)N1CCC[C@H]1C(=O)N[C@H](C(=O)N1CCC[C@H]1C(=O)O)C(C)C` [KVLPVP] (H-KVLPVP-OH; N-terminus and C-terminus assumed) gave a pIC50 in series [1] of 5.70. For the same compound, in series [3], the “Stability, Serum” value is given as “−”. Besides, the “Stability, HUVEC” value in series [4] is recorded as “−”. Further, the “Stability, Caco-2” value in series [5] is “−”.

On to `CSCC[C@H](N)C(=O)N1CCC[C@H]1C(=O)N1CCC[C@H]1C(=O)O` [MPP] (H-Met-Pro-Pro-OH; N-terminus and C-terminus assumed), for which the negative-log IC50 (pIC50) in series [1] was 5.15; in series [2] it was 5.00. The “Stability, Serum” value in series [3] is “+/−”. Moreover, in series [4], the “Stability, HUVEC” value is on record as “+”. The “Stability, Caco-2” value in series [5] is given as “−”.

With `CC[C@H](C)[C@H](NC(=O)[C@@H]1CCCN1)C(=O)N1CCC[C@H]1C(=O)O` [PIP] (H-Pro-Ile-Pro-OH; N-terminus and C-terminus assumed), in series [2], the pIC50 is less than 4.30. For the same compound, the “Stability, Serum” value in series [3] is given as “−”. The “Stability, HUVEC” value in series [4] is reported as “+/−”. Also, the “Stability, Caco-2” value in series [5] is listed as “−”.

`CC(C)C[C@H](NC(=O)[C@@H]1CCCN1)C(=O)N1CCC[C@H]1C(=O)O` [PLP] (H-Pro-Leu-Pro-OH; N-terminus and C-terminus assumed): the negative logarithm of the IC50 (pIC50) in series [2] is less than 4.30. Besides, the “Stability, Serum” value in series [3] is “−”. In addition, the “Stability, HUVEC” value in series [4] was “+/−”. Besides, the “Stability, Caco-2” value in series [5] is “−”.

In the case of `C[C@@H](O)[C@H](N)C(=O)N1CCC[C@H]1C(=O)N1CCC[C@H]1C(=O)O` [TPP] (H-Thr-Pro-Pro-OH; N-terminus and C-terminus assumed), the pIC50 in series [1] was 4.82; in series [2], 4.46. Further, the “Stability, Serum” value in series [3] is reported as “+/−”. In series [4], the “Stability, HUVEC” value is listed as “+”. Also, in series [5], the “Stability, Caco-2” value is listed as “+”.

In the case of `CC(C)[C@H](N)C(=O)N[C@@H](C)C(=O)N1CCC[C@H]1C(=O)O` [VAP] (H-Val-Ala-Pro-OH; N-terminus and C-terminus assumed), the negative logarithm of the IC50 (pIC50) in series [1] was 6.00; in series [2] it was 5.40. Also, in series [3], the “Stability, Serum” value is reported as “−”. Further, in series [4], the “Stability, HUVEC” value is “−”. Moreover, the “Stability, Caco-2” value in series [5] is listed as “−”.

Take `CC(C)[C@H](N)C(=O)N[C@@H](Cc1ccccc1)C(=O)O` [VF] (H-Val-Phe-OH; N-terminus and C-terminus assumed): in series [3], the “Stability, Serum” value is listed as “+/−”. For the same compound, the “Stability, HUVEC” value in series [4] is on record as “−”. In addition, the “Stability, Caco-2” value in series [5] was “+/−”.

In the case of `CC(C)[C@H](N)C(=O)N1CCC[C@H]1C(=O)N1CCC[C@H]1C(=O)O` [VPP], the Blood pressure effect result in series [6] is given as “blood pressure lowering effect”.
